Source: patent publication US20100215579A1, “PHEN-NAPHTHALENE AND PHEN-QUINOLINE DERIVATIVES AND THEIR USE FOR BINDING AND IMAGING AMYLOID PLAQUES” (The Trustees of the University of Pennsylvania, priority 2007, published 2010)

What was measured:
amyloid plaques = target: T1, amyloid plaques (Homo sapiens, UniProt P05067); test: Ki values of Phen-Nap, Nap-Phen derivatives (Ki binding data)
T1 construct: fibrillary Aβ plaques consisting predominately of aggregates of Aβ40 and Aβ42 peptides

[1] = Log P (octanol/Na2HPO4 buffer pH 7.4); format: physicochemical; conditions: pH 7.4

T1 sequence (P05067 672-713 limits assumed): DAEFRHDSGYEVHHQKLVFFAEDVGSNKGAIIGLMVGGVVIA
T1 sequence (P05067 672-711 limits assumed): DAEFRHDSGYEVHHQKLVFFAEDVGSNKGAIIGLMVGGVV

For CNc1ccc(-c2ccc3cc(OCCOCCOCCF)ccc3c2)cc1 [Compound 13a, 4-(6-(2-(2-(2-fluoroethoxy)ethoxy)ethoxy)naphthalen-2-yl)-N-methylbenzenamine], the Ki (amyloid plaques) was 1.6 nM and the logP [1] was 3.22.
